Series [1] deals with protein translation (luciferase reporter gene). The series is described as follows: Translation inhibition, CMV-luciferase reporter transfected into Huh7.5.1 cells. It counts as cell-based, human. Conditions: compound added for 3 h, luciferase reporter in Huh7.5.1 cells. How it is done:
(§1) (A) PHHs seeded in a 48-well plate were treated with Roc-A or DMSO and then infected by HCVpp. EC50and CC50 (50% cytotoxicity dose) were calculated based on the fitted Sigmoid curves. (B) Huh7.5.1 cells were treated with Roc-A (20 nM) or DMSO for 1, 2, and 3 days. Cellular PHB1, PHB2, CRaf, and Ras were detected by Western blotting. Numbers shown below Western blot gel images indicate the relative protein levels quantified by Odyssey imaging system (LI-COR Biosciences). (C-D) Flag-CRaf (F-CRaf) and V5-tagged PHB1 & 2 were co-transfected into 293T cells and then left untreated or treated with Roc-A (20 nM) before immunoprecipitation with anti-Flag antibody. The pulled-down PHB1 & 2 as well as CRaf were detected by immunoblotting. (E) Different inhibitory profiles of the (+)- and(−)-Roc-A enantiomers on HCVcc infection. (F) A CMV-luciferase reporter construct was transfected into Huh7.5.1 cells. 24 h post-transfection each compound was added to the cells for 3 h at 2 μM. After removal of the compound, the cells were further incubated for 24 h followed by luciferase assay. […] HCVcc-Luc was added to Huh7.5.1 cells at 37° C. and incubated for 3 h. At the indicated time points, 2μM of each compound or DMSO was added into the media and incubated for 3 h prior to removal. Infected cells were incubated at 37° C. for an additional 48 h prior to luciferase assay (mean of n=3; error bars, s.d.).

Series [2] in a line: Cytotoxicity (CC50) on Huh7.5.1 cells. It counts as cell-based. Conditions: human; for CC50 at 3 h: compounds incubated with cells for a total of 3 h on Huh7.5.1 cells; for CC50 at 48 h: compounds incubated with cells for a total of 48 h on Huh7.5.1 cells. From the text: (§2) In a preferred embodiment, Y is C, R1, R3, and R4 from the structure 5 is —OCH3, and R2 and R5 is hydrogen, which is aglaroxin C. […] The term EC50 refers to the concentration of a drug or antibody which induces a response halfway between the baseline and maximum after a specified exposure time. It is commonly used as a measure of drug's potency. The 50% cytotoxic concentration (CC50) is defined as the quantity of a toxicant generating 50% of cell viability, compared to the control. The values of the percentages of cell viability were plotted against toxicant concentrations, and CC50 is determined. (TI) is a comparison of the amount of a therapeutic agent that causes the therapeutic effect to the amount that causes toxicity.

Series [3] relates to HCVcc-Luc. The series is described as follows: Time-of-addition experiment, HCVcc-Luc on Huh7.5.1 cells. It counts as cell-based, Hepatitis C virus. Conditions: 2 μM. As for the experimental part: as §1
For series [4], the system named is JFH-1 genotype 2a infectious virus (HCVcc). The series is described as follows: HCV (HCVcc) infection / viral entry inhibition on Huh7.5.1 cells. It counts as cell-based, Hepatitis C virus. Conditions: for EC50: Hepatitis C virus; for inhibition on HCV entry (enantiomer comparison): HCVcc infection. As for the experimental part:
as §1, §2

Series [5] relates to CHIKVpp. Nature of the series: CHIKVpp infection of Huh7.5.1 cells. It counts as cell-based, chikungunya virus. Conditions: low nanomolar concentrations. How it is done:
FIGS. 4A and 4B illustrate that PHBs are required for CHIKVpp entry. (A) Huh7.5.1 were transfected with indicated siRNA, followed by infection of CHIKVpp (mean±SD, *p<0.05). (B) Huh 7.5.1 cells were treated with DMSO or Roc-A (10 nM) and then infected by CHIKVpp for luciferase assay (mean±SD, *p<0.05).

The target of series [6] is PHB1, PHB2, CRaf, and Ras (Homo sapiens (Human), UniProt P35232+Q99623). The series is described as follows: Western blot of total cellular protein levels in Huh7.5.1 cells. The format is cell-based. Conditions: 20 nM, 1, 2, and 3 days. As for the experimental part:
as §1
Background: A western blot detects proteins with antibodies after separation by electrophoresis.

In series [7] the test system is HCVpp. Nature of the series: HCVpp infection/entry, primary human hepatocytes (PHHs), with cell viability. The format is cell-based, Hepatitis C virus.
Series [8] concerns HCV RNA replication or protein translation. Nature of the series: HCV RNA replication or protein translation. It counts as cell-based, Hepatitis C virus. Conditions: 20 nM.
Series [9] has as its target PHB1 and PHB2 (Homo sapiens (Human), UniProt P35232+Q99623). The series is described as follows: Cell surface biotinylation assay. It counts as cell-based. Conditions: 20 nM, Huh7.5.1 cells.
The target of series [10] is PHB-CRaf interaction (Homo sapiens (Human), UniProt P35232+Q99623). The series is described as follows: Co-IP of Flag-CRaf and V5-tagged PHB1 & 2 in 293T cells. The format is cell-based. Conditions: 20 nM. As for the experimental part:
as §1

Series [11] relates to DENV2. Nature of the series: DENV2 infection of Huh7.5.1 cells. It counts as cell-based, dengue virus. As for the experimental part:
Huh7.5.1 cells were treated by DMSO, Roc-A (5nM) or Roc-A (10nM) for 10 hours prior to infection by DENV2 (MOI 0.1 and 1). 36 hours post-infection, cells were fixed in methanol and immunostained for DENV prM/E (red).

For series [12] the following is noted: human liver microsomal stability assay.
[13] abbreviates: 3 h incubation on Huh7.5.1 cells.
[14] abbreviates: 48 h incubation on Huh7.5.1 cells.

6 compounds from patent US10085988B1, “Aglaroxin C and derivatives as HCV entry inhibitors” (SRI International, priority 2015, dated 2018) can be followed below.

PHB-CRaf interaction, sequence (P35232 whole entry): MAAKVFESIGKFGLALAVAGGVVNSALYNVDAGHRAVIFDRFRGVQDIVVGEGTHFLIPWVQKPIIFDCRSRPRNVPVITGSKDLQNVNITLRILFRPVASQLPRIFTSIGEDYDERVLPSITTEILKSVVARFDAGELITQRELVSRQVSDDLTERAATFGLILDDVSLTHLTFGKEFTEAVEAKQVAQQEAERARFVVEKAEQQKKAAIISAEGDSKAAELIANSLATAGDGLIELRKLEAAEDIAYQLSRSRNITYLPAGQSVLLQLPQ
PHB-CRaf interaction, sequence (Q99623 whole entry): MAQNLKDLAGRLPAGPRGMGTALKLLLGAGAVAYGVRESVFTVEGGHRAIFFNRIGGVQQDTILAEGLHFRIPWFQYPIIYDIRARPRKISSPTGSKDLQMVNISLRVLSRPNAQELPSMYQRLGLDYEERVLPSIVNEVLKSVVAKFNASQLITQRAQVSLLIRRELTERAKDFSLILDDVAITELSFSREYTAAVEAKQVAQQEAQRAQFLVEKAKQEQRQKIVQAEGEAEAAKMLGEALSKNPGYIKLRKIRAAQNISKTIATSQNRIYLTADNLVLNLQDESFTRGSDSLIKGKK

`COc1ccc([C@@]23Oc4cc(OC)cc(OC)c4[C@]2(O)c2nc4n(c(=O)c2[C@H]3c2ccccc2)CCC4)cc1` (racemic) [(±) aglaroxin C (C10), aglaroxin C]: the “Translation inhibition at 2 μM” value in series [1] is “No”; in [1] (listed as chiral, racemic aglaroxin C), “did not inhibit”. Besides, in series [2], the CC50 at 3 h was found to be 10000 nM. In addition, the midpoint of cytotoxicity in [2], the CC50 at 48 h, lay at 20 nM. The anti-HCV activity entry was “lost its activity” in series [3] (added about 3 h after the infection was initiated); “inhibited HCV infection when added together with the virus” in series [3] (added together with the virus); “maximal anti-HCV activity” in series [3] (added together with the virus, listed as chiral, racemic aglaroxin C). The “TI (CC50/EC50)” value in series [4] (setting [13]) worked out at 100; in series [4] (setting [14]) it was 500. In addition, the EC50 in [4] (Huh-7.5.1, 3 h) turned out to be 100 nM; in series [4] (Huh-7.5.1, 48 h), 0.04 nM. In addition, the “half-maximum effective concentrations (EC50)” value in series [4] (JFH-1 genotype 2a infectious virus in cell culture) is recorded as “picomolar”.

Take `COc1ccc([C@]23Oc4cc(OC)cc(OC)c4[C@@]2(O)[C@@H](O)[C@@H](C(=O)N(C)C)[C@@H]3c2ccccc2)cc1` [(+) Roc-A]: in series [1], the “Translation inhibition at 2 μM” value is given as “No”. The midpoint of cytotoxicity in [2], the CC50 at 3 h, lay at 300000 nM. In series [4] (Huh-7.5.1, 3 h), this compound gave an EC50 of over 200000 nM.

Take `COc1ccc([C@]23Oc4cc(OC)cc(OC)c4[C@@]2(O)c2nc4n(c(=O)c2[C@@H]3c2ccccc2)CCC4)cc1` [(+)-aglaroxin C]: the “Translation inhibition at 2 μM” value in [1] was “No”. In series [2], the half-maximal cytotoxic concentration (CC50) at 3 h came to 100000 nM. Further, the “TI (CC50/EC50)” value in series [4] (setting [13]) is 5^1. In addition, a half-maximal effect in [4] (Huh-7.5.1, 3 h) (EC50) was put at 20000 nM.

`COc1ccc([C@@]23Oc4cc(OC)cc(OC)c4[C@]2(O)[C@H](O)[C@H](C(=O)N(C)C)[C@H]3c2ccccc2)cc1` [(−) Roc-A]: the “Translation inhibition at 2 μM” value in [1] is recorded as “No”. Further, in [2], the CC50 at 3 h stood at 50000 nM. Further, the midpoint of cytotoxicity in series [2], the CC50 at 48 h, lay at 300 nM. Moreover, the results for the “TI (CC50/EC50)” value in series [4] (setting [13]) and in series [4] (setting [14]) were 50 and 75, respectively. The “inhibition on HCV entry (enantiomer comparison)” value in series [4] is listed as “stronger inhibition on HCV entry than the (+) enantiomer”. The EC50 was 1000 nM in series [4] (Huh-7.5.1, 3 h) and 4 nM in [4] (Huh-7.5.1, 48 h).

Take `COc1ccc([C@@]23Oc4cc(OC)cc(OC)c4[C@]2(O)c2nc4n(c(=O)c2[C@H]3c2ccccc2)CCC4)cc1` [(−)-aglaroxin C]: the “Translation inhibition at 2 μM” value in series [1] is “No”. The same compound gave a 50% cytotoxic concentration (CC50) at 3 h in series [2] of 12000 nM. The “TI (CC50/EC50)” value in [4] (setting [13]) was 60^1. For the same compound, the “inhibition on HCV entry (enantiomer comparison)” value in series [4] was “active enantiomer”. Further, it took 200 nM to reach a half-maximal effect in [4] (Huh-7.5.1, 3 h) (EC50).

Regarding `COc1ccc([C@@]23Oc4cc(OC)cc(OC)c4[C@]2(O)[C@H](O)[C@H](C(=O)N(C)C)[C@H]3c2ccccc2)cc1` [Roc-A, rocaglamide A], the CHIKVpp infection entry in series [5] was “significantly reduced”. In addition, the “PHB1, 2, Ras, and CRaf at the total protein level” value in series [6] is “decreased”. In [7] (low nanomolar concentrations), the HCVpp infection entry is reported as “significantly reduced”. Further, in series [7] (pretreatment of PHHs at non-cytotoxic concentrations), the HCVpp entry result is reported as “suppressed”. In addition, the “inhibition of HCV RNA replication or protein translation” value in series [8] is “did not inhibit”. Also, the “cell surface expression of PHB1 and 2” value in series [9] was “decreased”. Also, in series [10], the “PHB-CRaf interaction in co-IP experiment” value is on record as “disrupted”. The DENV2 infection result in series [11] (5 nM or 10 nM for 10 hours prior to infection, MOI 0.1 and 1, Huh7.5.1 cells) is reported as “reduced”. Also, the dengue virus infection result in series [11] (low nanomolar concentrations) was “significantly reduced”. Further, the half-life in [12] stood at 37 min. Moreover, the HCVcc infection result in series [4] (low nanomolar concentrations) is “significantly reduced”.

By CC50 is commonly meant the concentration that lowers cell viability or growth by half. High values mean lower toxicity to the cells, low ones greater toxicity to the cells. The EC50 is the concentration at which the effect is half-maximal. Lower therefore signals a more potent agent. The term half-life denotes the time in which the quantity being followed falls by half. A low value points to rapid decline.
